# Data taken from PMC10571957, “αV-Integrin-Dependent Inhibition of Glioblastoma Cell Migration, Invasion and Vasculogenic Mimicry by the uPAcyclin Decapeptide” (Cancers, 2023).
# Several values for one entry are separate records, joined by “and”; a condition that tells them apart may be missing. Equal entries are not always repeated. Square brackets hold non-standard residues; d marks the D form. NMeV = CN[C@H](C(=O)O)C(C)C
# How the values were obtained:
# [1] = system: aggressive and recurrent meningiomas; details: combination with an mTOR inhibitor; ref [72]; cited from earlier work
# Text: As far as translation into clinics is concerned, it is worth mentioning that small peptides, such as uPAcyclin, are generally non-immunogenic and cost-effective to produce, and some of them have already entered clinical trials. […] Nevertheless, small peptides need to reach molecular targets to accomplish their effects. Thus, they often depend on physiological transports and ...
# [2] = system: U87-MG cells (αV integrin); experiment: FITC-uPAcyclin receptor binding/competition, U87-MG; design: species or system human; details: vitronectin 200 µM, anti-αV 5 µg/mL, anti-α2 1 µg/mL
# Description: The U87-MG, U251-MG, and U138-MG cell lines were harvested and acid-treated, as described. Then, 2 × 10^6 cells/sample were exposed for 30 min at 4 °C to uPAcyclin or S-uPAcyclin at the indicated concentrations, or with the following antibodies: VNR147 monoclonal anti-αV integrin (Chemicon Int. Inc., Temecula, CA, USA), polyclonal anti-αV (Millipore, Burlington, MA, USA), monoclonal anti-α2 (Chemicon Int. Inc., Temecula, CA, USA), polyclonal anti-actin (Sigma-Aldrich, St. Louis, MO, USA), monoclonal anti-GAPDH (Abcam, Cambridge, UK), and purified vitronectin (VN, Corning, Glendale, AZ, USA). The cells were subsequently incubated with 50 nM FITC-uPAcyclin for 2 h at 4 °C, as described. At the end of incubation, the cells were washed and the cell surface-associated fluorescence was determined using a fluorimeter (VICTOR^TM X3-PerkinElmer, Waltham, MA, USA). All binding assays were performed three times, with duplicate samples, and analyzed as described in Section 2.11.
# Figure 2 αV expression of U87-MG, U251-MG, and U138-MG GBM cells and specific binding of FITC-uPAcyclin. (A) U87-MG, U251-MG, U138-MG, HEK-293, and HEK-293/αV total cell lysates were subjected to Western blotting and probed using polyclonal anti-αV or polyclonal anti-actin as loading control. (B) A total of 2 × 10^6 U87-MG, U251-MG, U138-MG, HEK-293/αV, or HEK-293 cells were pre-incubated for 30 min at 4 °C with 500 nM uPAcyclin and further exposed to 50 nM FITC-uPAcyclin for 2 h at 4 °C. At the end of the incubation, the unbound material was washed and cell-associated FITC-uPAcyclin was quantitated by a fluorimeter. The net value of cell-surface-associated fluorescence, corresponding to the specific binding, is shown. (C) A total of 2 × 10^6 U87-MG, U251-MG, and U138-MG cells were pre-incubated for 30 min at 4 °C with increasing concentrations of unlabeled uPAcyclin and then assayed for binding of FITC-uPAcyclin, for 2 h at 4 °C. Cell-surface-associated fluorescence, as percentage of the samples […], is shown. (D) U87-MG cells were pre-incubated with uPAcyclin (1 pM, 100 nM), scrambled uPAcyclin (S-uPAcyclin, 1 pM and 100 nM)), vitronectin (200 µM), anti-αv polyclonal (anti-αV Pclonal, 5 µg/mL) or monoclonal (anti-αV MoAb, 5 µg/mL) or anti-α2 monoclonal (anti-α2 MoAb, 1 µg/mL), polyclonal anti-actin, and monoclonal anti GAPDH. Then, cells were treated as in B (* p-value < 0.05; *** p-value < 0.001).
# [3] = system: patients with advanced glioblastoma; details: cited from earlier work
# Text: (§1) Since the identification of the integrin-binding domain (RGD) in fibronectin/vitronectin, RGD-containing peptides and derived compounds have been developed. […] In contrast, other trials have not shown cilengitide to be better in terms of progression-free survival or overall survival than the standard treatment ...
# [4] = system: GBM models; details: cited from earlier work
# Text: as §1
# [5] = system: mice; design: method as in PMID 12183425; details: ref [65]; cited from earlier work
# [6] = system: gynecologic malignancies; design: method as in PMID 18760451, PMID 22446624; details: ref [66],[67], cited from earlier work
substance,measurement,setting,value
octreotide,efficacy and tolerability,[1],effective and well tolerated
vitronectin: purified vitronectin (Corning),"competition with FITC-uPAcyclin binding, in words","[2]; U87-MG, S-uPAcyclin 1 pM and 100 nM",only at a high concentration
same,"FITC-uPAcyclin binding, single values","[2]; T-test sheet, single replicates of all EXPTs",42 and 50 and 45 and 47
"cilengitide: known αVβ3/αVβ5 integrin inhibitor (cyclo(RGD[dF][NMeV]); chains of the INN, looked up)",overall survival effect,"[3]; patients with advanced glioblastoma, ref [52]",seemed to suggest a positive effect on overall survival
same,progression-free or overall survival vs standard treatments,[3]; ref [53],have not shown cilengitide to be better in terms of progression-free survival or overall survival than the standard treatments
same,effect in GBM models,[4]; ref [51],"cytotoxic, anti-angiogenetic, and anti-invasive effect in GBM models"
same,tumor angiogenesis at lower doses,"[4]; suggested reason for failure in GBM patients, ref [54]",detrimental stimulation of tumor angiogenesis at lower doses
Ac-K^136PSSPPEE^143-NH2 [Å6],anti-angiogenetic and anti-metastatic activity,[5],clearcut anti-angiogenetic and anti-metastatic activities in mice
same,tolerability,"[6]; phase I, gynecologic malignancies",well tolerated
same,disease progression,[6]; phase II,delayed disease progression in the treated individuals
